Test results published in patent publication US20040156869A1, “2-substituted quinazolin-4-ylamine analogues” (Neurogen Corporation, priority 2002, published 2004).

Target: human capsaicin receptor (VR1) (Homo sapiens, UniProt Q8NER1)
Experiment: Capsaicin receptor binding assay ([3H]RTX competition, VR1-transfected HEK293 membranes)

Sequence of human capsaicin receptor (VR1) (Q8NER1 whole entry): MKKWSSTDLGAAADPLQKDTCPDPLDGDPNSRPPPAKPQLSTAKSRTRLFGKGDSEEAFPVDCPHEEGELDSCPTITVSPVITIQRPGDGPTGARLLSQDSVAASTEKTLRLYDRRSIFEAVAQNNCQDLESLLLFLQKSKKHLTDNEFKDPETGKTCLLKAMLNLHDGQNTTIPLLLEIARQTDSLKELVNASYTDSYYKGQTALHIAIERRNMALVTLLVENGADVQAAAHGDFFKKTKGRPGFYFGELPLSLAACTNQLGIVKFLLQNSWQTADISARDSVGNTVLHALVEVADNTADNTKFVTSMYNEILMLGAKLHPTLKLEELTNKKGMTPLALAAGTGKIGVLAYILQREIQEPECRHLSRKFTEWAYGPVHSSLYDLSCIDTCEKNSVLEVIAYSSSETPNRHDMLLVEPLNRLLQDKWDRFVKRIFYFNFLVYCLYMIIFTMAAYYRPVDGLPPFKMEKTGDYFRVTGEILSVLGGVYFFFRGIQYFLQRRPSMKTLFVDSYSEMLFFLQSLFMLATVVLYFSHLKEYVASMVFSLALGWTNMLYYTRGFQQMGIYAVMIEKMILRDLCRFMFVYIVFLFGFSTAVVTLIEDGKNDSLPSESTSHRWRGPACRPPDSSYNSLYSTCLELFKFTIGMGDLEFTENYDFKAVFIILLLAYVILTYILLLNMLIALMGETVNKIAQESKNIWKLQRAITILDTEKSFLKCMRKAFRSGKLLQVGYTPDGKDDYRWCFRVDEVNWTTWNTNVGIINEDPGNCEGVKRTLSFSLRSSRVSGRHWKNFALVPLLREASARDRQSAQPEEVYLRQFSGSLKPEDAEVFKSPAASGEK

Ki	Compound
< 1 µM	COCc1nc(Nc2ccc(C(F)F)cc2)c2ccc(-c3ncccc3C(F)(F)F)nc2n1 [Compound 240, (4-Difluoromethyl-phenyl)-[2-methoxymethyl-7-(3-trifluoromethyl-pyridin-2-yl)-pyrido[2,3-d]pyrimidin-4-yl]-amine]
< 1 µM	CCOCc1nc(Nc2ccc(C(F)F)cc2)c2ccc(-c3ncccc3C(F)(F)F)nc2n1 [Compound 241, (4-Difluoromethyl-phenyl)-[2-ethoxymethyl-7-(3-trifluoromethyl-pyridin-2-yl)-pyrido[2,3-d]pyrimidin-4-yl]-amine]
< 1 µM	COCc1nc(Nc2ccc(C(F)F)cc2)c2ccc(-c3ncccc3Cl)nc2n1 [Compound 243, [7-(3-Chloro-pyridin-2-yl)-2-methoxymethyl-pyrido[2,3-d]pyrimidin-4-yl]-(4-difluoromethyl-phenyl)-amine]
< 1 µM	CCOCc1nc(Nc2ccc(C(F)F)cc2)c2ccc(-c3ncccc3Cl)nc2n1 [Compound 244, [7-(3-Chloro-pyridin-2-yl)-2-ethoxymethyl-pyrido[2,3-d]pyrimidin-4-yl]-(4-difluoromethyl-phenyl)-amine]
< 1 µM	CO[C@H](C)c1nc(Nc2ccc(C(F)(F)F)cc2)c2ccc(-c3ncccc3Cl)nc2n1 [Compound 245, (R)-[7-(3-Chloro-pyridin-2-yl)-2-(1-methoxy-ethyl)-pyrido[2,3-d]pyrimidin-4-yl]-(4-trifluoromethyl-phenyl)-amine]
< 1 µM	CN1CCC(COCc2nc(Nc3ccc(C(F)(F)F)cc3)c3ccc(-c4ncccc4C(F)(F)F)cc3n2)CC1 [Compound 247, [2-(1-Methyl-piperidin-4-ylmethoxymethyl)-7-(3-trifluoromethyl-pyridin-2-yl)-quinazolin-4-yl]-(4-trifluoromethyl-phenyl)-amine]

The next lines start with the molecule.

Compound	Ki
COCc1nc(Nc2ccc(C(C)C)cc2)c2ccc(-c3nccnc3Cl)nc2n1 [Compound 237, [7-(3-Chloro-pyrazin-2-yl)-2-methoxymethyl-pyrido[2,3-d]pyrimidin-4-yl]-(4-isopropyl-phenyl)-amine]	< 1 µM
COCc1nc(Nc2ccc(C(C)(C)C#N)cc2)c2ccc(-c3nccnc3Cl)nc2n1 [Compound 238, 2-{4-[7-(3-Chloro-pyrazin-2-yl)-2-methoxymethyl-pyrido[2,3-d]pyrimidin-4-ylamino]-phenyl}-2-methyl-propionitrile]	< 1 µM
COCc1nc(Nc2ccc(S(=O)(=O)C(F)(F)F)cc2)c2ccc(-c3nccnc3Cl)nc2n1 [Compound 239, [7-(3-Chloro-pyrazin-2-yl)-2-methoxymethyl-pyrido[2,3-d]pyrimidin-4-yl]-(4-trifluoromethanesulfonyl-phenyl)-amine]	< 1 µM
CC(C)COCc1nc(Nc2ccc(C(F)F)cc2)c2ccc(-c3ncccc3C(F)(F)F)nc2n1 [Compound 242, (4-Difluoromethyl-phenyl)-[2-isobutoxymethyl-7-(3-trifluoromethyl-pyridin-2-yl)-pyrido[2,3-d]pyrimidin-4-yl]-amine]	< 1 µM
CC(C)COCc1nc(Nc2ccc(F)cc2)c2ccc(-c3ncccc3C(F)(F)F)nc2n1 [Compound 248, (4-Fluoro-phenyl)-[2-isobutoxymethyl-7-(3-trifluoromethyl-pyridin-2-yl)-pyrido[2,3-d]pyrimidin-4-yl]-amine]	< 1 µM
CC(C)COCc1nc(Nc2ccc(Cl)cc2)c2ccc(-c3ncccc3C(F)(F)F)nc2n1 [Compound 249, (4-Chloro-phenyl)-[2-isobutoxymethyl-7-(3-trifluoromethyl-pyridin-2-yl)-pyrido[2,3-d]pyrimidin-4-yl]-amine]	< 1 µM
CC(=O)c1ccc(Nc2nc(COCC(C)C)nc3nc(-c4ncccc4C(F)(F)F)ccc23)cc1 [Compound 250, 1-{4-[2-Isobutoxymethyl-7-(3-trifluoromethyl-pyridin-2-yl)-pyrido[2,3-d]pyrimidin-4-ylamino]-phenyl}-ethanone]	< 1 µM
